Source: ChEMBL document CHEMBL5032527, “N-(4-acetamidophenyl)-5-acetylfuran-2-carboxamide as a novel orally available diuretic that targets urea transporters with improved PD and PK properties” (Eur J Med Chem, 2021)
The source made the active and inactive calls. No cut-off for these calls is given here.

Assays:
Urea transporter 1 [1] = target: T1, Urea transporter 1 (Rattus norvegicus, UniProt P97689); assay: Inhibition of rat UT-B expressed in MDCK cells; type: cell-based
T1 sequence (P97689 whole entry): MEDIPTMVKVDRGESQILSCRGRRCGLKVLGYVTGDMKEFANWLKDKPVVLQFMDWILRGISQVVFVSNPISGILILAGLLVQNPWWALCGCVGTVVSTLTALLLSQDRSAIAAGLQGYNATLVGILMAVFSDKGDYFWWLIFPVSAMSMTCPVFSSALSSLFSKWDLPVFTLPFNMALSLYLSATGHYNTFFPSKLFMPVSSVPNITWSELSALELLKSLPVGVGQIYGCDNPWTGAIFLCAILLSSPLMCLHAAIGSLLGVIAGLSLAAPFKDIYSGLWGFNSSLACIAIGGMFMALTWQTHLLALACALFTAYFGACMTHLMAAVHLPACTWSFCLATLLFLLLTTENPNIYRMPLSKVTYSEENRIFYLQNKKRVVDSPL

Urea transporter 1 [2] = target: T2, Urea transporter 1 (Mus musculus, UniProt Q8VHL0); assay: Inhibition of mouse UT-B expressed in MDCK cells; type: cell-based
T2 sequence (Q8VHL0 whole entry): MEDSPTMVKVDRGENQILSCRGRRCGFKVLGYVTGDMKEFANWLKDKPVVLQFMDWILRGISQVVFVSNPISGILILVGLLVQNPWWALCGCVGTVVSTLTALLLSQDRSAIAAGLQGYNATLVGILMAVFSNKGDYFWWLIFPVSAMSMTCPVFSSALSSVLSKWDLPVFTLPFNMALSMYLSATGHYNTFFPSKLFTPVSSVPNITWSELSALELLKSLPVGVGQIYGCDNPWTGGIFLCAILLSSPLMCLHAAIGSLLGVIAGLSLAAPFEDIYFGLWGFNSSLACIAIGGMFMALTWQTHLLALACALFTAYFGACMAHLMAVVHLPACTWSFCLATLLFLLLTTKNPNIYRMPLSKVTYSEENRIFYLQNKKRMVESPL

[3] = MRT in Sprague-Dawley rat at 100 mg/kg, po by LC-MS/MS analysis; type: ADME, organism-based; details: in vivo
[4] = AUC (0 to t) in Sprague-Dawley rat at 100 mg/kg, po by LC-MS/MS analysis; type: ADME, organism-based; set-up: dose 100 mg/kg; details: in vivo
[5] = Metabolic stability in Sprague-Dawley rat plasma assessed as percentage of compound remaining after 240 mins by LC-MS/MS analysis; type: ADME, cell-free; details: read-out: Stability
MDCK [6] = assay: Inhibition of rat UT-A1 expressed in MDCK cells assessed as inhibition of urea transport at 8 uM; type: cell-based
Rattus norvegicus [7] = assay: Diuretic activity in Sprague-Dawley rat assessed as increase in urine volume at 100 mg/kg, IG after 4 hrs; type: functional, organism-based
[8] = Cmax in Sprague-Dawley rat at 100 mg/kg, po by LC-MS/MS analysis; type: ADME, organism-based; set-up: route oral, dose 100 mg/kg; details: in vivo
[9] = AUC (0 to infinity) in Sprague-Dawley rat at 100 mg/kg, po by LC-MS/MS analysis; type: ADME, organism-based; set-up: route oral, time infinity, dose 100 mg/kg; details: in vivo
[10] = Half life in Sprague-Dawley rat at 100 mg/kg, po by LC-MS/MS analysis; type: ADME, organism-based; details: in vivo
[11] = Bioavailability in Sprague-Dawley rat at 100 mg/kg, po by LC-MS/MS analysis; type: ADME, organism-based; details: in vivo
[12] = Metabolic stability in Sprague-Dawley rat liver microsomes assessed as percentage of compound remaining after 240 mins by LC-MS/MS analysis; type: ADME, Microsome; details: read-out: Stability
MDCK [13] = assay: Cytotoxicity against MDCK cells assessed as reduction in cell viability at 80 uM measured by CCK-8 assay; type: cell-based, Canis lupus familiaris; details: dog
Rattus norvegicus [14] = assay: Diuretic activity in Sprague-Dawley rat assessed as increase in urine volume at 100 mg/kg, IG after 2 hrs; type: functional, organism-based
MDCK [15] = assay: Cytotoxicity against MDCK cells assessed as reduction in cell viability at 400 uM measured by CCK-8 assay; type: cell-based, Canis lupus familiaris; details: dog
Rattus norvegicus [16] = species on record: Rattus norvegicus; assay: Diuretic activity in IG treated Sprague-Dawley rat assessed as reduction in urine osmolality; type: functional
in vivo = details: Sprague-Dawley, rat, po, 100 mg/kg
Rattus norvegicus [17] = assay: Diuretic activity in Sprague-Dawley rat assessed as increase in urine volume at 100 mg/kg, IG; type: functional, organism-based; details: TDE = time-dependent effect
[18] = target: T3, Urea transporter 1 (Rattus norvegicus) (UniProt P97689); assay: Inhibition of rat UT-B expressed in MDCK cells assessed as inhibition of urea transport at 8 uM; type: cell-based
T3 sequence (whole entry): T1 sequence (P97689 whole entry)

Mus musculus [19] = assay: Diuretic activity in mouse assessed as increase in urine output at 100 mg/kg, IG measured after 7 days; type: functional, organism-based; details: time 7.0 day
Mus musculus [20] = species on record: Mus musculus; assay: Diuretic activity in mouse assessed as reduction in urine osmolality; type: functional, organism-based
[21] = target: Voltage-gated inwardly rectifying potassium channel KCNH2 (Homo sapiens, UniProt Q12809); assay: Inhibition of hERG; details: read-out: INH
Voltage-gated inwardly rectifying potassium channel KCNH2, sequence (Q12809 whole entry): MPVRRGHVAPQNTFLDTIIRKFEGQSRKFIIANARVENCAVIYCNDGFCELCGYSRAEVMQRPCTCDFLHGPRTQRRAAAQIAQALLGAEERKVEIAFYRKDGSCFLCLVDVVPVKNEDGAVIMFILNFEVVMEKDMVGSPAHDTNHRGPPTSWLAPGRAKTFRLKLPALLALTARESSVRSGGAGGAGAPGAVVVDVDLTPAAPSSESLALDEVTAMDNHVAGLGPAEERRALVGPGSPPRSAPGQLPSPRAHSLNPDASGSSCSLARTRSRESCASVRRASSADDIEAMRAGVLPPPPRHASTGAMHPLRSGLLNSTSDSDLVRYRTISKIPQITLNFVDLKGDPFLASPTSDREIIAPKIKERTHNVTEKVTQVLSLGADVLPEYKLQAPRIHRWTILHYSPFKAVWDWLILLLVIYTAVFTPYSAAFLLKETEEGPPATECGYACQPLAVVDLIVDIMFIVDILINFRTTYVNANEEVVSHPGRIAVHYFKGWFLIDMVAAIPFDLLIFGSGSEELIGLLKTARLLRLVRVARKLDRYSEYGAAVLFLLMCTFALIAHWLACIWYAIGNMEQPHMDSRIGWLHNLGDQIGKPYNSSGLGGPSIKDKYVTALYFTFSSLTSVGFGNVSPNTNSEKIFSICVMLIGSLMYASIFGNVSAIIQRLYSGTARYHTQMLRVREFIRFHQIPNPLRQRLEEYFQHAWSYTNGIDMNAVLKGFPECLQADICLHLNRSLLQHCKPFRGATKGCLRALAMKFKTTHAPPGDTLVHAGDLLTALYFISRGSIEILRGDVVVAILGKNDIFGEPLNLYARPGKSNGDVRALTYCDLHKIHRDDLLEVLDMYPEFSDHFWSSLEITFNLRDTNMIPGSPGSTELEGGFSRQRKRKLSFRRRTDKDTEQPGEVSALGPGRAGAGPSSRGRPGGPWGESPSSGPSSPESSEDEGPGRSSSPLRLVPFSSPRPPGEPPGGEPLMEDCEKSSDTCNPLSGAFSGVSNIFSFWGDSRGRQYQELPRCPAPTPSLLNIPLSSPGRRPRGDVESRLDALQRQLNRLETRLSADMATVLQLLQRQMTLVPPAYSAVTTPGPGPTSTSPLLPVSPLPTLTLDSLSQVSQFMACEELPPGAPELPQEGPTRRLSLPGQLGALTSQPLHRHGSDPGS

Rattus norvegicus [22] = assay: Diuretic activity in Sprague-Dawley rat assessed as increase in urine volume at 50 mg/kg, IG after 2 hrs; type: functional, organism-based
Mus musculus [23] = species on record: Mus musculus; assay: Diuretic activity in mouse assessed as increase in urine volume; type: functional, organism-based

Row | IC50 (Urea transporter 1 [1]) [µM] | IC50 (Urea transporter 1 [2]) [µM] | SMILES | also measured
1 | 0.6 | 1.5 | O=C(Nc1ccc2ccc(=O)[nH]c2c1)c1ccc([N+](=O)[O-])o1 | 
2 | 1.41 |  | CC(=O)Nc1ccc(NC(=O)c2ccc([N+](=O)[O-])o2)cc1 | MRT [3]: 1.51 h; AUC(0-t) [4]: 78.1 ng·h/mL; remaining at 4 h [5]: 20%; inhibition (MDCK [6]): 102%; Activity (Rattus norvegicus [7]): inactive; Cmax [8]: 74.3 ng/mL; AUC(0-inf) [9]: 82.5 ng·h/mL; t1/2 [10]: 0.93 h; bioavailability [11]: 4.38%; remaining at 4 h [12]: 20%
3 | 1.06 | 2.19 | O=C1CCc2cc(NC(=O)c3ccc([N+](=O)[O-])o3)ccc2N1 | 
4 | 2.77 | 3.47 | O=C(Nc1ccc(NS(=O)(=O)c2ccc(C(F)(F)F)cc2)cc1)c1ccc([N+](=O)[O-])o1 | 
5 | 6.47 | > 10 | CC(=O)Nc1ccc(NC(=O)c2ccc(F)o2)cc1 | 
6 | 0.28 | 0.84 | CCS(=O)(=O)Nc1ccc(NC(=O)c2ccc([N+](=O)[O-])o2)cc1 | 
7 | 3.17 | 4.99 | O=C1Cc2cc(NC(=O)c3ccc([N+](=O)[O-])o3)ccc2N1 | 
8 | 1.23 | 2.34 | O=C(Nc1ccc2[nH]c(=O)ccc2c1)c1ccc([N+](=O)[O-])o1 | 
9 | > 10 | > 10 | CC(=O)Nc1ccc(NC(=O)c2ccc(C(=O)C(C)(C)C)o2)cc1 | 
10 | 0.81 | 1.6 | O=C(Nc1ccc(NS(=O)(=O)c2cccc(Br)c2)cc1)c1ccc([N+](=O)[O-])o1 | 
11 | 0.15 | 0.16 | CC(=O)c1ccc(C(=O)Nc2ccc(NS(=O)(=O)c3ccccc3)cc2)o1 | Activity (MDCK [13]): Toxic
12 | 0.75 | 1.01 | O=C(Nc1ccc(NS(=O)(=O)c2cccc(Cl)c2)cc1)c1ccc([N+](=O)[O-])o1 | 
13 | 0.66 | 1.32 | O=C(Nc1ccc(NS(=O)(=O)c2cccc(F)c2)cc1)c1ccc([N+](=O)[O-])o1 | 
14 | 0.53 | 1.05 | O=C(Nc1ccc(NS(=O)(=O)c2ccccc2Cl)cc1)c1ccc([N+](=O)[O-])o1 | 
15 | > 10 | > 10 | CC(=O)Nc1ccc(NC(=O)c2ccc(C(F)F)o2)cc1 | 
16 | 0.43 | 0.69 | O=C(Nc1ccc(NS(=O)(=O)c2ccc(Cl)cc2)cc1)c1ccc([N+](=O)[O-])o1 | 
17 | 1.66 | 2.22 | O=C(Nc1ccc(NS(=O)(=O)c2cccc(C(F)(F)F)c2)cc1)c1ccc([N+](=O)[O-])o1 | 
18 | 6.05 | > 10 | O=C(Nc1cccc2ccc(=O)[nH]c12)c1ccc([N+](=O)[O-])o1 | 
19 | 1.04 | 1.68 | O=C(Nc1ccc(NS(=O)(=O)c2ccccc2F)cc1)c1ccc([N+](=O)[O-])o1 | 
20 | > 10 | > 10 | O=C(Nc1cccc2[nH]c(=O)ccc12)c1ccc([N+](=O)[O-])o1 | 
21 | > 10 | 9.85 | CC(=O)Nc1ccc(NC(=O)c2ccc(C(=O)c3ccccc3)o2)cc1 | 
22 |  |  | CC(=O)Nc1ccc(NC(=O)c2ccc(C(C)=O)o2)cc1 | Activity (Rattus norvegicus [14]): Active; MRT [3]: 5.45 h; Activity (MDCK [15]): Toxic; AUC(0-t) [4]: 6840 ng·h/mL; fold change (FC) (Rattus norvegicus [16]): 10; remaining at 4 h [5]: 20%; Tmax (in vivo): 0.21 h; inhibition (MDCK [6]): 84.4%; Cmax [8]: 1240 ng/mL; Activity (Rattus norvegicus [17]): Tde; inhibition [18]: 89.6%; Activity (Mus musculus [19]): Active; Activity (Mus musculus [20]): Active; bioavailability [11]: 15.8%; IC50 [21]: > 100 µM; Activity (Rattus norvegicus [22]): Active; remaining at 4 h [12]: 20%; Activity (Mus musculus [23]): Active
23 | 0.64 | 1.31 | O=C(Nc1ccc(NS(=O)(=O)c2ccc(F)cc2)cc1)c1ccc([N+](=O)[O-])o1 | 
24 | 0.87 | 1.49 | O=C(Nc1ccc(NS(=O)(=O)c2ccccc2C(F)(F)F)cc1)c1ccc([N+](=O)[O-])o1 | 
25 | 0.11 | 0.24 | O=C(Nc1ccc(NS(=O)(=O)c2ccccc2)cc1)c1ccc([N+](=O)[O-])o1 | 
